Results published in ChEMBL document CHEMBL1201862, “PubChem BioAssay data set” (2004).
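Five concentrations, 48 hours, 96-well plates. GI50 = concentration required for 50% inhibition of growth.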 Active and inactive are the calls of the source. Cut-off read from the data, not from the text of the source: active = GI50 up to about 1.1 µM and inactive = higher.

Tests used:
Assay in all cases: NCI anticancer screen, dose series, 48 h
UACC-257 = test system: UACC-257
OVCAR-5 = test system: OVCAR-5
MOLT-4 = test system: MOLT-4
T47D = test system: T47D
OVCAR-3 = test system: OVCAR-3
A549 = test system: A549
CCRF-CEM = test system: CCRF-CEM
TK-10 = test system: TK-10
MDA-MB-231 = test system: MDA-MB-231
IGROV-1 = test system: IGROV-1
OVCAR-4 = test system: OVCAR-4
NCI-H226 = test system: NCI-H226
SNB-19 = test system: SNB-19
SK-MEL-28 = test system: SK-MEL-28
COLO 205 = test system: COLO 205
HOP-92 = test system: HOP-92
U-251 = test system: U-251
UO-31 = test system: UO-31
A498 = test system: A498
SF-539 = test system: SF-539

Measured: GI50

N=C(c1ccc(-c2cn3cc(C(=N)N4CCCC4)ccc3n2)cc1)N1CCCC1
inactive: UACC-257 > 100 µM | OVCAR-5 > 100 µM | MOLT-4 > 100 µM | T47D > 100 µM | OVCAR-3 > 100 µM | A549 > 100 µM | CCRF-CEM 20.8 µM | TK-10 > 100 µM | MDA-MB-231 > 100 µM | IGROV-1 > 100 µM | OVCAR-4 > 100 µM | NCI-H226 > 100 µM | SNB-19 > 100 µM | SK-MEL-28 > 100 µM | COLO 205 > 100 µM | HOP-92 3.86 µM | U-251 > 100 µM | UO-31 > 100 µM

COC(=O)c1ccccc1NCc1cc(O)ccc1O
inactive: UACC-257 15.6 µM | OVCAR-5 29.4 µM | MOLT-4 16.1 µM | T47D 15.9 µM | OVCAR-3 16.7 µM | A549 32.7 µM | CCRF-CEM 4.91 µM | TK-10 26.1 µM | IGROV-1 25.9 µM | OVCAR-4 17.9 µM | A498 34.3 µM | NCI-H226 18 µM | SNB-19 39 µM | SK-MEL-28 19.1 µM | COLO 205 19.4 µM | HOP-92 17.7 µM | SF-539 17.7 µM | U-251 20.1 µM | UO-31 17.5 µM

O=Cc1ccc(-c2ccc(S(=O)(=O)O)cc2)o1
inactive: UACC-257 > 100 µM | OVCAR-5 > 100 µM | MOLT-4 > 100 µM | OVCAR-3 > 100 µM | A549 > 100 µM | CCRF-CEM > 10 µM | TK-10 > 100 µM | MDA-MB-231 > 100 µM | IGROV-1 > 100 µM | A498 > 100 µM | NCI-H226 > 100 µM | SNB-19 > 100 µM | SK-MEL-28 > 100 µM | COLO 205 > 100 µM | SF-539 > 100 µM | U-251 > 100 µM | UO-31 > 100 µM

CN(C)CC(CN(C)C)c1ccccn1
inactive: UACC-257 > 100 µM | OVCAR-5 > 100 µM | MOLT-4 > 100 µM | OVCAR-3 > 100 µM | A549 > 100 µM | CCRF-CEM > 100 µM | TK-10 > 100 µM | MDA-MB-231 > 100 µM | IGROV-1 > 100 µM | OVCAR-4 > 100 µM | A498 > 100 µM | NCI-H226 > 100 µM | SNB-19 > 100 µM | SK-MEL-28 > 100 µM | COLO 205 > 100 µM | HOP-92 > 100 µM | SF-539 > 100 µM | U-251 > 100 µM | UO-31 > 100 µM

O=C(N/C(=C\c1ccc(/C=C(\NC(=O)c2ccccc2)c2nc3cc(Cl)ccc3[nH]2)cc1)c1nc2cc(Cl)ccc2[nH]1)c1ccccc1
inactive: UACC-257 36.4 µM | OVCAR-5 > 100 µM | MOLT-4 3.89 µM | OVCAR-3 22.4 µM | A549 24.9 µM | CCRF-CEM 5.31 µM | TK-10 28.6 µM | IGROV-1 46 µM | OVCAR-4 20.2 µM | A498 22.9 µM | NCI-H226 > 100 µM | SNB-19 51.9 µM | SK-MEL-28 17.5 µM | COLO 205 24.3 µM | HOP-92 35.1 µM | SF-539 20.6 µM | U-251 39.6 µM | UO-31 25.2 µM

COCC1OC(S(=O)(=O)c2ccccc2)C(O)C(OC)C1OC (stereo not drawn)
inactive: UACC-257 > 100 µM | OVCAR-5 > 100 µM | MOLT-4 > 100 µM | T47D > 100 µM | OVCAR-3 > 100 µM | A549 > 100 µM | CCRF-CEM > 100 µM | TK-10 > 100 µM | MDA-MB-231 > 100 µM | IGROV-1 > 100 µM | OVCAR-4 > 100 µM | NCI-H226 > 100 µM | SNB-19 > 100 µM | SK-MEL-28 > 100 µM | COLO 205 > 100 µM | SF-539 > 100 µM | U-251 > 100 µM | UO-31 > 100 µM

CCc1cc(CCC(=O)Nc2c(C)cccc2C)n[nH]1
inactive: UACC-257 > 100 µM | OVCAR-5 > 100 µM | MOLT-4 > 100 µM | OVCAR-3 > 100 µM | A549 > 100 µM | CCRF-CEM > 100 µM | TK-10 > 100 µM | IGROV-1 > 100 µM | OVCAR-4 > 100 µM | A498 > 100 µM | NCI-H226 > 100 µM | SNB-19 > 100 µM | SK-MEL-28 > 100 µM | COLO 205 > 100 µM | HOP-92 > 100 µM | SF-539 > 100 µM | U-251 > 100 µM | UO-31 > 100 µM

C/C=C\C(CC(=O)NCCC1CN(S(=O)(=O)C(F)(F)F)c2ccccc21)CC(=O)OC (stereo not drawn)
inactive: UACC-257 48.2 µM | OVCAR-5 58.6 µM | MOLT-4 29.6 µM | OVCAR-3 38.3 µM | A549 45.8 µM | CCRF-CEM 26.6 µM | MDA-MB-231 50.8 µM | IGROV-1 50 µM | OVCAR-4 63.5 µM | A498 62.8 µM | SNB-19 44.7 µM | SK-MEL-28 43.3 µM | COLO 205 24.8 µM | HOP-92 23.9 µM | U-251 59.3 µM | UO-31 35.3 µM
